Results reported in BigSolDB 2.1.

COC(=O)C1=C(C)NC(C)=C(C(=O)OCC(C)C)C1c1ccccc1[N+](=O)[O-] (stereo not given)
solubility (mole fraction)
Details | 278.15 K | 283.15 K | 288.15 K | 293.15 K | 298.15 K | 303.15 K | 308.15 K | 313.15 K | 318.15 K
in acetonitrile | 0.00826 | 0.00998 | 0.0121 | 0.0145 | 0.0173 | 0.0204 | 0.0241 | 0.0281 | 0.0329
in ethyl acetate | 0.016 | 0.0185 | 0.0214 | 0.0248 | 0.0286 | 0.0324 | 0.037 | 0.0419 | 0.0477
in isopropanol | 0.00483 | 0.00578 | 0.00688 | 0.0081 | 0.00956 | 0.0111 | 0.0129 | 0.015 | 0.0172
in n-propanol | 0.00367 | 0.00448 | 0.00553 | 0.00673 | 0.00811 | 0.0097 | 0.0115 | 0.0136 | 0.0162
in water | 3.79e-06 | 5.04e-06 | 6.75e-06 | 8.67e-06 | 1.17e-05 | 1.51e-05 | 1.94e-05 | 2.47e-05 | 3.09e-05
